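96-well plates; 48 h exposure; 5 concentrations. Endpoints by linear interpolation between flanking doses. Not reached: highest tested concentration assigned. Here, GI50 denotes the concentration required for 50% inhibition of growth.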 Calls of active or inactive are those of the source. Rule as the data show it: active = GI50 up to about 1.1 µM and inactive = higher.
Columns and labels:
Test in all cases: NCI anticancer screen, dose series, 48 h
K562 = test system: K562
SF-295 = test system: SF-295
Hs-578T = test system: Hs-578T
M14 = test system: M14
SF-539 = test system: SF-539
OVCAR-4 = test system: OVCAR-4
PC-3 = test system: PC-3
EKVX = test system: EKVX
SN12C = test system: SN12C
TK-10 = test system: TK-10
A498 = test system: A498
NCI-H23 = test system: NCI-H23
LOX IMVI = test system: LOX IMVI
UACC-62 = test system: UACC-62
SK-MEL-5 = test system: SK-MEL-5
HCT-116 = test system: HCT-116
U-251 = test system: U-251
ACHN = test system: ACHN
SK-OV-3 = test system: SK-OV-3
MDA-MB-231 = test system: MDA-MB-231

SMILES	GI50 (K562)	GI50 (SF-295)	GI50 (Hs-578T)	GI50 (M14)	GI50 (SF-539)	GI50 (OVCAR-4)	GI50 (PC-3)	GI50 (EKVX)	GI50 (SN12C)	GI50 (TK-10)	GI50 (A498)	GI50 (NCI-H23)	GI50 (LOX IMVI)	GI50 (UACC-62)	GI50 (SK-MEL-5)	GI50 (HCT-116)	GI50 (U-251)	GI50 (ACHN)	GI50 (SK-OV-3)	GI50 (MDA-MB-231)
CC1(C)CCC2=C(O1)/C(=N\Nc1ccc(S(N)(=O)=O)cc1)c1ccccc1C2=O	28.4 µM (inactive)	11.8 µM (inactive)	3.13 µM (inactive)	16.1 µM (inactive)	10.4 µM (inactive)	5.81 µM (inactive)	13.6 µM (inactive)	16.7 µM (inactive)	11.2 µM (inactive)	14.5 µM (inactive)	2.37 µM (inactive)	6.55 µM (inactive)	4.41 µM (inactive)	18.2 µM (inactive)	1.81 µM (inactive)	11.6 µM (inactive)	8.73 µM (inactive)	19.8 µM (inactive)	4.15 µM (inactive)	2.56 µM (inactive)
CC(=O)O[C@H]1CC[C@@]2(C)C(=CC[C@H]3[C@@H]4C/C(=C\c5ccc(N(C)C)cc5)[C@H](OC(C)=O)[C@@]4(C)CC[C@@H]32)C1	6.59 µM (inactive)	4.12 µM (inactive)	3.72 µM (inactive)	14.2 µM (inactive)	10.7 µM (inactive)	14.7 µM (inactive)	4.41 µM (inactive)	8.69 µM (inactive)	14.7 µM (inactive)	15.6 µM (inactive)	18.9 µM (inactive)	13.1 µM (inactive)	8.91 µM (inactive)	6.41 µM (inactive)	12.5 µM (inactive)	6.37 µM (inactive)	6.71 µM (inactive)	8.71 µM (inactive)	43.4 µM (inactive)	12.5 µM (inactive)
CC1(C)CCCC2CC2CCC(C)(C)C1=O (stereo not given)	17.8 µM (inactive)	> 100 µM (inactive)	> 100 µM (inactive)	42 µM (inactive)	> 100 µM (inactive)	> 100 µM (inactive)	51.1 µM (inactive)	57.9 µM (inactive)	71 µM (inactive)	> 100 µM (inactive)	> 100 µM (inactive)	> 100 µM (inactive)	27.5 µM (inactive)	> 100 µM (inactive)	42.9 µM (inactive)	78.2 µM (inactive)	19.1 µM (inactive)	> 100 µM (inactive)	> 100 µM (inactive)	82.4 µM (inactive)
CCCCC1NC=Nc2c1ccc1c2[nH]c2ccccc21 (stereo not given)	1.87 µM (inactive)	2.48 µM (inactive)	2.14 µM (inactive)	2.41 µM (inactive)	3.05 µM (inactive)	2.7 µM (inactive)	1.69 µM (inactive)	3.8 µM (inactive)	2.89 µM (inactive)	5.71 µM (inactive)	14.4 µM (inactive)	1.73 µM (inactive)	1.94 µM (inactive)	4.27 µM (inactive)	1.58 µM (inactive)	1.91 µM (inactive)	2.95 µM (inactive)	3.61 µM (inactive)	5.87 µM (inactive)	1.73 µM (inactive)
CN(C(=O)Cc1cc(Cl)c(Cl)cc1N=C=S)[C@H]1CCCC[C@@H]1N1CCCC1	2.02 µM (inactive)	16.7 µM (inactive)	15.5 µM (inactive)	15.5 µM (inactive)	23.6 µM (inactive)	13.3 µM (inactive)	13.5 µM (inactive)	17.3 µM (inactive)	16.6 µM (inactive)	10.1 µM (inactive)	13.5 µM (inactive)	15.2 µM (inactive)	5.9 µM (inactive)	16.4 µM (inactive)	14 µM (inactive)	8.49 µM (inactive)	14.9 µM (inactive)	15.4 µM (inactive)	18 µM (inactive)	14.3 µM (inactive)
CC(C)CCC1(O)O[C@H]2C[C@H]3[C@@H]4CCC5CC(=O)C=C[C@]5(C)[C@H]4CC[C@]3(C)[C@H]2[C@@H]1C (stereo not given in full)	5.07 µM (inactive)	11.7 µM (inactive)	2.82 µM (inactive)	15.9 µM (inactive)	17.6 µM (inactive)	11.9 µM (inactive)	5.02 µM (inactive)	16.7 µM (inactive)	14.4 µM (inactive)	11.8 µM (inactive)	14.6 µM (inactive)	4.26 µM (inactive)	12.7 µM (inactive)	14.6 µM (inactive)	13.7 µM (inactive)	6.79 µM (inactive)	10.7 µM (inactive)	13.7 µM (inactive)	18.8 µM (inactive)	14.5 µM (inactive)
COC(=O)C1CCC(=O)N1C(c1ccc2c(c1)OCO2)c1ccc2c(c1)OCO2 (stereo not given)	> 100 µM (inactive)	> 100 µM (inactive)	> 100 µM (inactive)	> 100 µM (inactive)	> 100 µM (inactive)	> 100 µM (inactive)	> 100 µM (inactive)	> 100 µM (inactive)	> 100 µM (inactive)	> 100 µM (inactive)	> 100 µM (inactive)	> 100 µM (inactive)	> 100 µM (inactive)	> 100 µM (inactive)	> 100 µM (inactive)	> 100 µM (inactive)	> 100 µM (inactive)	> 100 µM (inactive)	> 100 µM (inactive)	> 100 µM (inactive)
C#CC(O)/C=C/CCCCCCC#CC/C=C\CC#CCCCCCCCCC(O)C#C (stereo not given)	3.14 µM (inactive)	15.1 µM (inactive)	20.6 µM (inactive)	1.11 µM (active)	20.8 µM (inactive)	4.19 µM (inactive)	14.3 µM (inactive)	3.51 µM (inactive)	1.99 µM (inactive)	13.1 µM (inactive)	12.6 µM (inactive)	1.02 µM (active)	< 0.01 µM (active)	9.08 µM (inactive)	2.68 µM (inactive)	2.28 µM (inactive)	20.5 µM (inactive)	12.2 µM (inactive)	17.6 µM (inactive)	3.32 µM (inactive)
COC(=O)c1ccc2c(O)c(O)ccc2c1	2.36 µM (inactive)	6.98 µM (inactive)	27 µM (inactive)	16.4 µM (inactive)	19.1 µM (inactive)	14.6 µM (inactive)	5.6 µM (inactive)	22.8 µM (inactive)	9.14 µM (inactive)	21.5 µM (inactive)	21.3 µM (inactive)	5.28 µM (inactive)	2.87 µM (inactive)	15.9 µM (inactive)	4.45 µM (inactive)	16.7 µM (inactive)	14.4 µM (inactive)	17.1 µM (inactive)	18.1 µM (inactive)	6.56 µM (inactive)
CSc1c(C#N)c(O)nc(N)c1C(=O)Nc1ccc(Cl)cc1	4.54 µM (inactive)	11 µM (inactive)	31 µM (inactive)	5.2 µM (inactive)	16.4 µM (inactive)	31.4 µM (inactive)	13.2 µM (inactive)	14.9 µM (inactive)	23.8 µM (inactive)	29.3 µM (inactive)	16.6 µM (inactive)	16.8 µM (inactive)	1.74 µM (inactive)	0.853 µM (active)	10.4 µM (inactive)	5.45 µM (inactive)	19.5 µM (inactive)	3.18 µM (inactive)	23.3 µM (inactive)	15.6 µM (inactive)

From ChEMBL document CHEMBL1201862, “PubChem BioAssay data set” (2004)
